# From PubChem BioAssay AID1645865 (Buhrlage Lab, Dana-Farber Cancer Institute and Novartis …, 2021)
# pIC50: −log10 of the molar value. Calls of active or inactive are those of the source.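 Rule for the calls: active = maximal inhibition of the USP30 enzyme reaching 30% or more across the dose series; inactive = the rest.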
# Biological target: Ubiquitin carboxyl-terminal hydrolase 30 (Homo sapiens) (UniProt Q70CQ3)
# Experiment: inhibitors of ubiquitin-specific protease 30 deubiquitylating enzyme, concentration dependence, in vitro biochemical, validation of primary hits (AID 1645865)
# Details: purified USP30, Ub-rhodamine cleavage, fluorescence, 2 h
# Ubiquitin carboxyl-terminal hydrolase 30 (Homo sapiens), sequence (Q70CQ3 whole entry, looked up): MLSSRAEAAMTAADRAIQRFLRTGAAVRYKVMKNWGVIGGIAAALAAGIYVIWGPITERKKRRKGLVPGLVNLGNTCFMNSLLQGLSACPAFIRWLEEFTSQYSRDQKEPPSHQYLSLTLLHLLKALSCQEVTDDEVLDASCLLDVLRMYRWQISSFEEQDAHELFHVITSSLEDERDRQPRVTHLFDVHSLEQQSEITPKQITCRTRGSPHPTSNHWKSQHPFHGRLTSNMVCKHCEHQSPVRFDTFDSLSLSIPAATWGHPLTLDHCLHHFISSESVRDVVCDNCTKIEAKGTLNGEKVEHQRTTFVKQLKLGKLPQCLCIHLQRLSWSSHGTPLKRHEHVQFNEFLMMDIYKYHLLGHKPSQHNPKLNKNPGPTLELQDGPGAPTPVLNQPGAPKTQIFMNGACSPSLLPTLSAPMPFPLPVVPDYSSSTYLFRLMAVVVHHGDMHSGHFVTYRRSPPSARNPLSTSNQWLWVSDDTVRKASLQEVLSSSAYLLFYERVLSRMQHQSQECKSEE
pIC50,IC50,SMILES
4.59,,COc1ccc(CN=C2NS(=O)(=O)C(c3ccc(F)cc3)=C2C)cc1OC
5.46,,COc1ccc(NC(=O)c2[nH]nc3c2COc2ccccc2-3)c(OC)c1
4.42,,CN(C)c1cc(-n2cnc(C(=O)NCc3ccccc3Cl)c2)ncn1
,> 50 µM (inactive),CCn1c(SCc2cccc(C)c2)nnc1-c1cnccn1
,> 50 µM (inactive),O=C(Nc1ccc2c(c1)OCCO2)C1CCN(C(=O)c2cc(-c3cccnc3)n[nH]2)CC1
5.39,,C[C@@H](C(=O)NCc1ccc(F)cc1)N1C(=O)N2CCc3c([nH]c4ccccc34)[C@@]2(C)C1=O
,> 50 µM (inactive),COc1c2c(cc3cc(O)c4c(=O)cc(C)oc4c13)CCC2=O
,> 50 µM (inactive),Fc1ccccc1N1CCN(c2ncc3c(n2)CCN(Cc2ccccn2)C3)CC1
,> 50 µM (inactive),Cc1ccc(NCc2cc3c(C(C)(C)C)nn(-c4ccc(Cl)cc4)c3[nH]c2=O)cc1
4.53,,CCN1C(=O)COc2ccc(NC(=O)c3ccc(OCc4nonc4C)cc3)cc21
4.62,,O=C(Nc1ccc2c(c1)N(C(=O)C1CCCC1)CC2)c1c(F)cccc1F
,> 50 µM (inactive),Cc1ccc(NC(=O)c2c3c(nc4ccccc24)CCCCC3)c(C)c1
,> 50 µM (inactive),CCn1c(=O)c2ccccc2n(Cc2nc(-c3ccccc3OC)no2)c1=O
4.39,,Cc1[nH]nc(NC(=O)C2COc3ccccc3O2)c1-c1ccccc1 (stereo not given)
,> 50 µM (inactive),Cc1ccccc1C(=O)OCCN1C(=O)c2cccc3c(N4CCCCC4)ccc(c23)C1=O
4.58,,Cc1ccccc1NC(=O)CNc1nc(Nc2ccccc2)nc(Nc2ccccc2)n1
,> 50 µM (inactive),Cc1oc(-c2ccc(C(=O)NCC3COCCO3)cc2)nc1CN1CCc2ccccc21 (stereo not given)
5.89,,O=C(COc1ccc2c(-c3ccccc3)cc(=O)oc2c1)Nc1cccnc1
4.39,,CCCCCCCc1cc(O)cc(OC(=O)c2c(CCCCCCC)cc(O)cc2O[C@H]2O[C@H](C(O)CO)[C@@H](O)[C@@H]2O)c1 (stereo not given in full)
,> 50 µM (inactive),N#Cc1ccc(Cl)cc1NC(=O)COc1cccnc1[N+](=O)[O-]
5.62,,Cc1ccc(NC(=O)c2ccc3nn(CC(=O)Nc4ccc(F)cc4F)c(=O)n3c2)cc1
5.44,,CC(Nc1ncnc2c1sc1nc(N3CCOCC3)c3c(c12)CCC3)c1ccccc1 (stereo not given)
4.50,,O=C(NCc1ccccc1)Nc1cccc2ccccc12

pIC50,IC50,SMILES
4.50,,Cc1ccc(NC(=O)CSc2nc3c(cc2C#N)C(=O)CCC3)cc1
4.49,,O=C(Cn1c(=O)n(Cc2ccc3c(c2)OCO3)c(=O)c2ncccc21)c1ccc(Cl)cc1
4.34,,COc1ccc(-c2ocnc2C(=O)Nc2cccc(Cl)c2C)cc1OC
,> 50 µM (inactive),Cc1ccccc1Cn1ccc(NC(=O)c2noc(C)c2[N+](=O)[O-])n1
4.44,,CC1=C(C)C(N(c2ccccc2)c2ccccc2)N(CCC(C)C)C1=O (stereo not given)
5.71,,Cc1cccc(NC(=O)CSc2ccc(-n3cnc(-c4ccccc4)c3)nn2)c1
,> 50 µM (inactive),COc1ccc(CCC(=O)Nc2ccc3c(c2)Sc2ncccc2C(=O)N3C)cc1
4.77,,COc1cccc(N2C(=O)N(CC(=O)NCc3ccc(Cl)cc3)c3ccccc3S2(=O)=O)c1
,> 50 µM (inactive),N=C1C(c2nc3ccccc3s2)=C(O)CN1Cc1ccc(F)cc1
5.64,,CCCCCC(=O)N1c2ccccc2NC2=C(C(=O)CC(c3ccc(C(C)(C)C)cc3)C2)C1c1ccncc1 (stereo not given)
,> 50 µM (inactive),O=C(NCc1ccccc1Cl)c1ccc2cn[nH]c2c1
4.49,,COc1cccc(NC(=O)c2ccc3noc(-c4ccc(Cl)cc4)c3c2)c1
,> 50 µM (inactive),Cc1ncc(CO)c2c1Oc1nc(-c3cccc(Cl)c3)nc(SCC(=O)N3CCCCC3)c1C2
,> 50 µM (inactive),CCn1ccc2c(cc(C(=O)Nc3cc(F)ccc3F)n2C)c1=O
4.51,,CS(=O)(=O)c1ccc(NC(=O)C2CN(c3nc4c(F)cccc4s3)C2)cc1
,> 50 µM (inactive),CC(=O)Nc1ccc(Cc2nc(-c3ccc4c(c3)nc(C)c(=O)n4C3CCCC3)no2)cc1
,> 50 µM (inactive),COc1ccc(-c2nonc2NC(=O)C(c2ccccc2)c2ccccc2)cc1OC
5.19,,CCN(CCCNC(=O)c1ccc(Cn2c(=O)[nH]c3ccccc3c2=O)cc1)c1ccccc1
,> 50 µM (inactive),N#C/C(=C\c1ccc(-c2cc(Cl)ccc2Cl)o1)c1nnc2n1CCCCC2
4.91,,CCCc1cc(=O)oc2cc(OCC(=O)NCc3ccc(OC)cc3)ccc12
,> 50 µM (inactive),COc1ccccc1/C=C/C(=O)Nc1nc2n(n1)C(c1ccc(Cl)cc1)CC(=O)N2 (stereo not given)
4.54,,COc1ccccc1NC(=O)Nc1ccc(NC(=O)c2ccccc2O)cc1
4.60,,O=C(NCCCc1nc2ccccc2n1Cc1c(Cl)cccc1Cl)c1ccco1

pIC50,IC50,SMILES
5.09,,COc1ccc(NC(=O)C2CC(=O)Nc3c(-c4ccc(Cl)cc4)cnn32)c(OC)c1 (stereo not given)
,> 50 µM (inactive),COc1cccc(NC(=O)c2ccc(-c3csc(C)n3)cc2)c1
,> 50 µM (inactive),Cc1cnc2nc3c(cc2c1)CN(S(=O)(=O)c1cc(F)ccc1C)CC3
,> 50 µM (inactive),COC(=O)c1ccc(Cn2cnc3ccc(F)cc3c2=O)o1
,> 50 µM (inactive),COc1cc(OC)c2c(c1)C(=O)C1=C(COC(C)(O)C1)C2=O (stereo not given)
4.53,,CSc1ncccc1C(=O)NC1(O)C(=O)c2ccccc2C1=O
5.51,,COc1ccc(OC)c(-n2c(SCC(=O)N3CCc4ccccc43)nnc2-c2cccc(S(=O)(=O)N(C)C)c2)c1
4.66,,O=C(Nc1cc(F)ccc1F)c1ccn(COc2ccc(F)c(Cl)c2)n1
4.57,,CC(C)NC(=O)CN1C(=O)CC(C)Sc2ccc(S(=O)(=O)N3CCCCC3)cc21 (stereo not given)
4.66,,CC(C)c1ccc(/C=C/C(=O)N2CCc3ccccc3C2)cc1
,> 50 µM (inactive),CN(CCCNC(=O)c1cccc2c1SCCC2=O)c1ccccc1
5.28,,COc1cc(OC)cc(-n2c(=O)c3sccc3n(CC(=O)Nc3ccc(C)cc3)c2=O)c1
,> 50 µM (inactive),COc1ccc(C(=O)CSc2nnc(-c3cccnc3)n2-c2ccccc2)cc1
4.55,,COc1cc(/C=C/C(=O)OCC(=O)Nc2ccc([N+](=O)[O-])cc2OC)ccc1O
4.37,,O=C(Nc1ccc2c(c1)OCCO2)c1ccc(N2CCCC2=O)cc1
4.63,,Cc1cc(NCC2CC2)n2nc(Nc3cc(Cl)ccc3C)nc2n1
4.40,,CCc1cc2c(=O)[nH]c(Cc3ccc(OC)cc3)nc2s1
,> 50 µM (inactive),CO[C@H]1/C=C/OC2(C)Oc3c(C)c(O)c4c(c3C2=O)C2(C=C(NC(=O)/C(C)=C\C=C\[C@H](C)[C@H](O)[C@@H](C)[C@@H](O)[C@@H](C)[C@H](OC(C)=O)C1C)C4=O)OCC(=O)O2 (stereo not given in full)
,> 50 µM (inactive),COC(=O)c1ccc(Cn2cnc3ccc(Br)cc3c2=O)o1
,> 50 µM (inactive),Cc1noc(C)c1CN1CC[C@H]2O[C@H](C(=O)NCc3ccco3)CC[C@H]21
5.36,,O=C(Nc1cccc2ccccc12)C1CCCN(S(=O)(=O)Cc2ccccc2)C1 (stereo not given)

SMILES,pIC50,IC50
COC1=C(C2=C(OC)C(=O)c3cc4c(c(O)c3C2=O)C(=O)OC(C)C4)C(=O)c2c(cc3c(c2O)C(=O)OC(C)C3)C1=O (stereo not given),,> 50 µM (inactive)
CCC(CC)n1[nH]c(=O)c2c1NC(=O)CSC2c1ccc2c(c1)OCO2 (stereo not given),4.78,
COc1cccc2c1NC(=O)C21CCN(C(=O)Nc2cccc3ccccc23)CC1,,> 50 µM (inactive)
